Assay results published in patent US10189838B2, “Aza-oxo-indoles for the treatment and prophylaxis of respiratory syncytial virus infection” (Hoffmann-La Roche Inc., priority 2013, dated 2019).

System: RSV Long strain
Assay: Viral cytopathic effect (CPE) assay, RSV Long strain
Assay type: cell-based, Respiratory Syncytial Virus
Conditions: human respiratory syncytial virus, 144 h, cell viability after 6 days (Cell Counting kit-8)
Procedure: EC50: the concentration of a compound where 50% of its maximal protection effect against viral induced CPE is observed
LongStrain: an A subtype RSV strain obtained from ATCC with catalog number VR-26
To measure anti-RSV activity of compounds, 96-well plates are seeded with 6×10^3 cells per well in Dulbecco's modified Eagle's medium (DMEM) containing 10% fetal bovine serum (FBS). Cells are infected the next day with sufficient RSV Long strain (ATCC) to produce an approximately 80-90% cytopathic effect after 6 days, in the presence of serial half-log diluted compound in a total volume of […] per well. The viability of cells is assessed after 6 days using Cell Counting kit-8 (Dojindo Molecular Technologies). The absorbance at 450 nm and referenced at 630 nm is measured to determine 50% effective concentration (EC50)

Row | SMILES | EC50
1 | O=C1N(Cc2cc3cc(Cl)ccc3n2CCCCN2CCCS2(=O)=O)c2cnccc2C12CC2 [Example 7-8, 1′-({5-Chloro-1-[4-(1,1-dioxido-1,2-thiazolidin-2-yl)butyl]-1H-indol-2-yl}methyl)spiro[cyclopropane-1,3′-pyrrolo[2,3-c]pyridin]-2′(1′H)-one] | 18 nM
2 | O=C1N(Cc2cc3cc(Cl)ccc3n2CCCN2CCS(=O)(=O)CC2)c2cnccc2C12CC2 [Example 7-9, 1′-({5-Chloro-1-[3-(1,1-dioxidothiomorpholin-4-yl)propyl]-1H-indol-2-yl}methyl)spiro[cyclopropane-1,3′-pyrrolo[2,3-c]pyridin]-2′(1′H)-one] | 797 nM
3 | O=C1N(Cc2cc3cc(Cl)ccc3n2CCCN2CCCS2(=O)=O)c2cnccc2C12CC2 [Example 7-10, 1′-({5-Chloro-1-[3-(1,1-dioxido-1,2-thiazolidin-2-yl)propyl]-1H-indol-2-yl}methyl)spiro[cyclopropane-1,3′-pyrrolo[2,3-c]pyridin]-2′(1′H)-one] | 29 nM
4 | O=C1N(Cc2cc3cc(Cl)ccc3n2CCCO)c2cnccc2C12CC2 [Example 8, 1′-{[5-Chloro-1-(3-hydroxypropyl)-1H-indol-2-yl]methyl}spiro[cyclopropane-1,3′-pyrrolo[2,3-c]pyridin]-2′(1′H)-one] | 58 nM
5 | [2H]C([2H])(c1cc2cc(Cl)ccc2n1CCS(C)(=O)=O)N1C(=O)C2(CC2)c2ccncc21 [Example 9, 1′-[{5-Chloro-1-[2-(methylsulfonyl)ethyl]-1H-indol-2-yl}(^2H2)methyl]spiro[cyclopropane-1,3′-pyrrolo[2,3-c]pyridin]-2′(1′H)-one] | 19 nM
6 | [2H]C([2H])(c1cc2cc(Cl)ccc2n1CCCS(C)(=O)=O)N1C(=O)C2(CC2)c2ccncc21 [Example 10, 1′[{-5-Chloro-1-[3-(methylsulfonyl)propyl]-1H-indol-2-yl}(^2H2)methyl]spiro[cyclopropane-1,3′-pyrrolo[2,3-c]pyridin]-2′(1′H)-one] | 19 nM
7 | CCOC(=O)CCn1c(CN2C(=O)C3(CC3)c3ccncc32)cc2cc(Cl)ccc21 [Example 11, Ethyl 3-{5-chloro-2-[(2′-oxospiro[cyclopropane-1,3′-pyrrolo[2,3-c]pyridin]-1′(2′H)-yl)methyl]-1H-indol-1-yl}propanoate] | 19 nM
8 | O=C1N(Cc2cc3cc(Cl)cnc3n2CCC2CS(=O)(=O)C2)c2cnccc2C12CC2 [Example 12, 1′-({5-Chloro-1-[2-(1,1-dioxidothietan-3-yl)ethyl]-1H-pyrrolo[2,3-b]pyridin-2-yl}methyl)spiro[cyclopropane-1,3′-pyrrolo[2,3-c]pyridin]-2′(1′H)-one] | 29 nM
9 | CCOC(=O)CCn1c(CN2C(=O)C3(CC3)c3ccncc32)cc2cc(Cl)cc(F)c21 [Example 13, Ethyl 3-{5-chloro-7-fluoro-2-[(2′-oxospiro[cyclopropane-1,3′-pyrrolo[2,3-c]pyridin]-1′(2′H)-yl)methyl]-1H-indol-1-yl}propanoate] | 18 nM
10 | CS(=N)(=O)CCCn1c(CN2C(=O)C3(CC3)c3ccncc32)cc2cc(Cl)ccc21 (centres unmarked) [Example 14-1, 1′-({5-Chloro-1-[3-(S-methylsulfonimidoyl)propyl]-1H-indol-2-yl}methyl)spiro[cyclopropane-1,3′-pyrrolo[2,3-c]pyridin]-2′(1′H)-one] | 6 nM
11 | CS(=N)(=O)CCn1c(CN2C(=O)C3(CC3)c3ccncc32)cc2cc(Cl)ccc21 (centres unmarked) [Example 14-2, 1′-({5-Chloro-1-[2-(S-methylsulfonimidoyl)ethyl]-1H-indol-2-yl}methyl)spiro[cyclopropane-1,3′-pyrrolo[2,3-c]pyridin]-2′(1′H)-one] | 7 nM
12 | CS(=N)(=O)CCCCn1c(CN2C(=O)C3(CC3)c3ccncc32)cc2cc(Cl)cnc21 (centres unmarked) [Example 14-3, 1′-({5-Chloro-1-[4-(S-methylsulfonimidoyl)butyl]-1H-pyrrolo[2,3-b]pyridin-2-yl}methyl)spiro[cyclopropane-1,3′-pyrrolo[2,3-c]pyridin]-2′(1′H)-one] | 74 nM
13 | CS(=N)(=O)CCn1c(CN2C(=O)C3(CC3)c3ccncc32)cc2cc(Cl)cnc21 (centres unmarked) [Example 14-4, 1′-({5-Chloro-1-[2-(S-methylsulfonimidoyl)ethyl]-1H-pyrrolo[2,3-b]pyridin-2-yl}methyl)spiro[cyclopropane-1,3′-pyrrolo[2,3-c]pyridin]-2′(1′H)-one] | 172 nM
14 | CC(=O)N=S(C)(=O)CCn1c(CN2C(=O)C3(CC3)c3ccncc32)cc2cc(Cl)ccc21 (centres unmarked) [Example 15, N-[(2-{5-Chloro-2-[(2′-oxospiro[cyclopropane-1,3′-pyrrolo[2,3-c]pyridin]-1′(2′H)-yl)methyl]-1H-indol-1-yl}ethyl)(methyl)oxido-λ^6-sulfanylidene]acetamide] | 25 nM
15 | O=C(O)CCn1c(CN2C(=O)C3(CC3)c3ccncc32)cc2cc(Cl)ccc21 [Example 16-1, 3-{5-Chloro-2-[(2′-oxospiro[cyclopropane-1,3′-pyrrolo[2,3-c]pyridin]-1′(2′H)-yl)methyl]-1H-indol-1-yl}propanoic acid] | 390 nM
16 | O=C(O)CCn1c(CN2C(=O)C3(CC3)c3ccncc32)cc2cc(Cl)cc(F)c21 [Example 16-2, 3-{5-Chloro-7-fluoro-2-[(2′-oxospiro[cyclopropane-1,3′-pyrrolo[2,3-c]pyridin]-1′(2′H)-yl)methyl]-1H-indol-1-yl}propanoic acid] | 300 nM
17 | COC(=O)CCCn1c(CN2C(=O)C3(CC3)c3ccncc32)cc2cc(Cl)ccc21 [Example 17, Methyl 4-{5-chloro-2-[(2′-oxospiro[cyclopropane-1,3′-pyrrolo[2,3-c]pyridin]-1′(2′H)-yl)methyl]-1H-indol-1-yl}butanoate] | 18.6 nM
18 | NC(=O)CCn1c(CN2C(=O)C3(CC3)c3ccncc32)cc2cc(Cl)ccc21 [Example 18-1, 3-{5-Chloro-2-[(2′-oxospiro[cyclopropane-1,3′-pyrrolo[2,3-c]pyridin]-1′(2′H)-yl)methyl]-1H-indol-1-yl}propanamide] | 17 nM
19 | NC(=O)CCn1c(CN2C(=O)C3(CC3)c3cccnc32)cc2cc(Cl)ccc21 [Example 18-2, 3-{5-Chloro-2-[(2′-oxospiro[cyclopropane-1,3′-pyrrolo[2,3-b]pyridin]-1′(2′H)-yl)methyl]-1H-indol-1-yl}propanamide] | 711 nM
20 | NC(=O)CCCn1c(CN2C(=O)C3(CC3)c3ccncc32)cc2cc(Cl)ccc21 [Example 18-3, 4-{5-Chloro-2-[(2′-oxospiro[cyclopropane-1,3′-pyrrolo[2,3-c]pyridin]-1′(2′H)-yl)methyl]-1H-indol-1-yl}butanamide] | 11 nM
21 | O=C(CCn1c(CN2C(=O)C3(CC3)c3ccncc32)cc2cc(Cl)ccc21)NS(=O)(=O)C1CC1 [Example 19-1, 3-{5-Chloro-2-[(2′-oxospiro[cyclopropane-1,3′-pyrrolo[2,3-c]pyridin]-1′(2′H)-yl)methyl]-1H-indol-1-yl}-N-(cyclopropylsulfonyl)propanamide] | 1180 nM
22 | CN(C(=O)CCn1c(CN2C(=O)C3(CC3)c3ccncc32)cc2cc(Cl)ccc21)S(=O)(=O)C1CC1 [Example 19-2, 3-{5-Chloro-2-[(2′-oxospiro[cyclopropane-1,3′-pyrrolo[2,3-c]pyridin]-1′(2′H)-yl)methyl]-1H-indol-1-yl}-N-(cyclopropylsulfonyl)-N-methylpropanamide] | 59 nM
23 | CN(C(=O)CCn1c(CN2C(=O)C3(CC3)c3ccncc32)cc2cc(Cl)ccc21)S(C)(=O)=O [Example 19-3, 3-{5-Chloro-2-[(2′-oxospiro[cyclopropane-1,3′-pyrrolo[2,3-c]pyridin]-1′(2′H)-yl)methyl]-1H-indol-1-yl}-N-methyl-N-(methylsulfonyl)propanamide] | 47 nM
24 | O=C1CNC(=O)N1CCn1c(CN2C(=O)C3(CC3)c3ccncc32)cc2cc(Cl)ccc21 [Example 20, 3-(2-{5-Chloro-2-[(2′-oxospiro[cyclopropane-1,3′-pyrrolo[2,3-c]pyridin]-1′(2′H)-yl)methyl]-1H-indol-1-yl}ethyl)imidazolidine-2,4-dione] | 3480 nM
25 | O=C1N(Cc2cc3cc(Cl)ccc3n2CCCN2CC[C@@H](O)C2)c2cnccc2C12CC2 [Example 21, 1′-[(5-Chloro-1-{3-[(3R)-3-hydroxypyrrolidin-1-yl]propyl}-1H-indol-2-yl)methyl]spiro[cyclopropane-1,3′-pyrrolo[2,3-c]pyridin]-2′(1′H)-one] | 544 nM
26 | CCS(=O)(=O)CCCn1c(CN2C(=O)C3(CC3)c3ccncc32)cc2cc(Cl)ccc21 [Example 22-1, 1′-({5-Chloro-1-[3-(ethylsulfonyl)propyl]-1H-indol-2-yl}methyl)spiro[cyclopropane-1,3′-pyrrolo[2,3-c]pyridin]-2′(1′H)-one] | 3 nM
27 | CS(=O)(=O)CCCn1c(CN2C(=O)C3(CC3)c3cccnc32)cc2cc(Cl)ccc21 [Example 22-2, 1′-({5-Chloro-1-[3-(methylsulfonyl)propyl]-1H-indol-2-yl}methyl)spiro[cyclopropane-1,3′-pyrrolo[2,3-b]pyridin]-2′(1′H)-one] | 88 nM
28 | CS(=O)(=O)CCCn1c(CN2C(=O)C3(CC3)c3ccncc32)cc2cc(Cl)ccc21 [Example 22-3, 1′-({5-Chloro-1-[3-(methylsulfonyl)propyl]-1H-indol-2-yl}methyl)spiro[cyclopropane-1,3′-pyrrolo[2,3-c]pyridin]-2′(1′H)-one] | 3 nM
29 | CCS(=O)(=O)CCCn1c(CN2C(=O)C3(CC3)c3ccncc32)cc2cc(Cl)cnc21 [Example 23, 1′-({5-Chloro-1-[3-(ethylsulfonyl)propyl]-1H-pyrrolo[2,3-b]pyridin-2-yl}methyl)spiro[cyclopropane-1,3′-pyrrolo[2,3-c]pyridin]-2′(1′H)-one] | 63 nM
